How the values were obtained:
Assay in all cases: Antimicrobial susceptibility testing (MIC), BD Phoenix Automated Microbiology System; for interpretation of the result: key: R, resistant; I, intermediate; S, susceptible; R*: *As a rule, when ESBL is detected, an interpretation of susceptible or intermediate for penicillins, cephalosporins and aztreonam is reported as resistant
Assay type in all cases: cell-based
Acinetobacter baumannii = test system: Acinetobacter baumannii; for interpretation of the result: key: R, resistant; I, intermediate; S, susceptible; R*: *As a rule, when ESBL is detected, an interpretation of susceptible or intermediate for penicillins, cephalosporins and aztreonam is reported as resistant
Escherichia coli = test system: Escherichia coli; for interpretation of the result: key: R, resistant; I, intermediate; S, susceptible; R*: *As a rule, when ESBL is detected, an interpretation of susceptible or intermediate for penicillins, cephalosporins and aztreonam is reported as resistant
Klebsiella ssp. = test system: Klebsiella ssp. For interpretation of the result: key: R, resistant; I, intermediate; S, susceptible; R*: *As a rule, when ESBL is detected, an interpretation of susceptible or intermediate for penicillins, cephalosporins and aztreonam is reported as resistant.
Pseudomonas aeruginosa = test system: Pseudomonas aeruginosa
[1] = Acinetobacter baumannii isolate 1
[2] = Acinetobacter baumannii isolate 2
[3] = Acinetobacter baumannii isolate 3
[4] = Acinetobacter baumannii isolate 4
[5] = Acinetobacter baumannii isolate 5
[6] = Pseudomonas aeruginosa isolate 1
[7] = Pseudomonas aeruginosa isolate 2
[8] = Pseudomonas aeruginosa isolate 3
[9] = Pseudomonas aeruginosa isolate 4
[10] = Pseudomonas aeruginosa isolate 5

| Substance | interpretation of the result (Acinetobacter baumannii; [1]) | minimal inhibiting concentration (Acinetobacter baumannii; [1]) | interpretation of the result (Acinetobacter baumannii; [2]) | minimal inhibiting concentration (Acinetobacter baumannii; [2]) | interpretation of the result (Acinetobacter baumannii; [3]) | minimal inhibiting concentration (Acinetobacter baumannii; [3]) | interpretation of the result (Acinetobacter baumannii; [4]) | minimal inhibiting concentration (Acinetobacter baumannii; [4]) | interpretation of the result (Acinetobacter baumannii; [5]) | minimal inhibiting concentration (Acinetobacter baumannii; [5]) | interpretation of the result (Escherichia coli; Escherichia coli isolate 1) | minimal inhibiting concentration (Escherichia coli; Escherichia coli isolate 1) | interpretation of the result (Escherichia coli; Escherichia coli isolate 2) | minimal inhibiting concentration (Escherichia coli; Escherichia coli isolate 2) | interpretation of the result (Escherichia coli; Escherichia coli isolate 3) | minimal inhibiting concentration (Escherichia coli; Escherichia coli isolate 3) | interpretation of the result (Escherichia coli; Escherichia coli isolate 4) | minimal inhibiting concentration (Escherichia coli; Escherichia coli isolate 4) | interpretation of the result (Escherichia coli; Escherichia coli isolate 5) | minimal inhibiting concentration (Escherichia coli; Escherichia coli isolate 5) | further results |
| --- | --- | --- | --- | --- | --- | --- | --- | --- | --- | --- | --- | --- | --- | --- | --- | --- | --- | --- | --- | --- | --- |
| Gentamicin [Gent.] | R | > 8 µg/mL | R | > 8 µg/mL | R | > 8 µg/mL | R | > 8 µg/mL | R | > 8 µg/mL | R | > 8 µg/mL | R | > 8 µg/mL | R | > 8 µg/mL | S | ≤ 2 µg/mL | S | ≤ 2 µg/mL | interpretation of the result (Klebsiella ssp.; Klebsiella ssp. isolate 1): R; minimal inhibiting concentration (Klebsiella ssp.; Klebsiella ssp. isolate 1): > 8 µg/mL; interpretation of the result (Klebsiella ssp.; Klebsiella ssp. isolate 2): R; minimal inhibiting concentration (Klebsiella ssp.; Klebsiella ssp. isolate 2): > 8 µg/mL; interpretation of the result (Klebsiella ssp.; Klebsiella ssp. isolate 3): I; minimal inhibiting concentration (Klebsiella ssp.; Klebsiella ssp. isolate 3): 8 µg/mL; interpretation of the result (Klebsiella ssp.; Klebsiella ssp. isolate 4): R; minimal inhibiting concentration (Klebsiella ssp.; Klebsiella ssp. isolate 4): > 8 µg/mL; interpretation of the result (Klebsiella ssp.; Klebsiella ssp. isolate 5): R; minimal inhibiting concentration (Klebsiella ssp.; Klebsiella ssp. isolate 5): > 8 µg/mL; interpretation of the result (Pseudomonas aeruginosa; [6]): S; minimal inhibiting concentration (Pseudomonas aeruginosa; [6]): 4 µg/mL; interpretation of the result (Pseudomonas aeruginosa; [7]): S; minimal inhibiting concentration (Pseudomonas aeruginosa; [7]): 4 µg/mL; interpretation of the result (Pseudomonas aeruginosa; [8]): I; minimal inhibiting concentration (Pseudomonas aeruginosa; [8]): 8 µg/mL; interpretation of the result (Pseudomonas aeruginosa; [9]): R; minimal inhibiting concentration (Pseudomonas aeruginosa; [9]): > 8 µg/mL; interpretation of the result (Pseudomonas aeruginosa; [10]): R; minimal inhibiting concentration (Pseudomonas aeruginosa; [10]): > 8 µg/mL |
| Trimethoprim-Sulfamethoxazole [TmSm.] | R | 2/38 | R | 2/38 | R | 2/38 | R | 2/38 | R | 2/38 | R | 2/38 | R | 2/38 | R | 2/38 | R | 2/38 | R | 2/38 | interpretation of the result (Klebsiella ssp.; Klebsiella ssp. isolate 1): R; minimal inhibiting concentration (Klebsiella ssp.; Klebsiella ssp. isolate 1): 2/38; interpretation of the result (Klebsiella ssp.; Klebsiella ssp. isolate 2): S; interpretation of the result (Klebsiella ssp.; Klebsiella ssp. isolate 3): S; interpretation of the result (Klebsiella ssp.; Klebsiella ssp. isolate 4): S; interpretation of the result (Klebsiella ssp.; Klebsiella ssp. isolate 5): R; minimal inhibiting concentration (Klebsiella ssp.; Klebsiella ssp. isolate 5): 2/38; interpretation of the result (Pseudomonas aeruginosa; [6]): R; minimal inhibiting concentration (Pseudomonas aeruginosa; [6]): 2/38; interpretation of the result (Pseudomonas aeruginosa; [7]): R; minimal inhibiting concentration (Pseudomonas aeruginosa; [7]): 2/38; interpretation of the result (Pseudomonas aeruginosa; [8]): R; minimal inhibiting concentration (Pseudomonas aeruginosa; [8]): 2/38; interpretation of the result (Pseudomonas aeruginosa; [9]): R; minimal inhibiting concentration (Pseudomonas aeruginosa; [9]): 2/38; interpretation of the result (Pseudomonas aeruginosa; [10]): R; minimal inhibiting concentration (Pseudomonas aeruginosa; [10]): 2/38 |

From patent US9529005B2, “Modulating bacterial MAM polypeptides in pathogenic disease” (priority 2011, dated 2016)
